Reference: ChEMBL document CHEMBL4145538, “Recent progress in the structural modification and pharmacological activities of ligustrazine derivatives” (Eur J Med Chem, 2018)
Converted amounts (≈) assume the structure as drawn.

Assays:
[1] = tested on: PC-12; experiment: Neuroprotection against CoCl2-induced toxicity in rat PC12 cells preincubated for 36 hrs followed by CoCl2 addition measured after 12 hrs by MTT assay; format: functional, cell-based
[2] = tested on: Platelet; experiment: Antiplatelet activity in rabbit platelet rich plasma assessed as inhibition of ADP-induced platelet aggregation by cytometry; format: functional, cell-based; settings: Oryctolagus cuniculus
[3] = tested on: Mus musculus; experiment: Anti-inflammatory activity in Kunming mouse assessed as inhibition of xylene-induced ear edema at 100 mg/kg, ig administered once daily for 7 days relative to control; format: functional; settings: po, 168 h
[4] = tested on: ECV-304; experiment: Protection against H2O2-induced damage in human ECV304 cells preincubated for 24 hrs followed by H2O2 addition and measured after 12 hrs by MTT assay; format: functional, cell-based
[5] = tested on: PC-12; experiment: Neuroprotection against CoCl2-induced toxicity in rat PC12 cells; format: functional, cell-based
[6] = tested on: HUVEC; experiment: Protection against H2O2-induced damage in HUVEC; format: functional, cell-based; settings: Homo sapiens
[7] = Half life in Sprague-Dawley rat at 20 mg/kg, iv; format: ADME, organism-based; settings: in vivo
[8] = tested on: HT-29; experiment: Antiproliferative activity against human HT-29 cells after 72 hrs by MTT assay; format: functional, cell-based; settings: HT-29, 72 h
[9] = tested on: HepG2; experiment: Antiproliferative activity against human HepG2 cells after 72 hrs by MTT assay; format: functional, cell-based; settings: HepG2, 72 h
[10] = tested on: MCF7; experiment: Antiproliferative activity against human MCF7 cells after 72 hrs by MTT assay; format: functional, cell-based; settings: MCF7, 72 h
[11] = tested on: Bel-7402; experiment: Antiproliferative activity against human Bel7402 cells after 72 hrs by MTT assay; format: functional, cell-based; settings: Bel-7402, 72 h
[12] = tested on: HUVEC; experiment: Protection against H2O2-induced damage in HUVEC preincubated for 0.5 hrs followed by H2O2 addition and measured after 12 hrs; format: functional, cell-based; settings: Homo sapiens
[13] = tested on: Thoracic aorta; experiment: Vasodilatory activity in Sprague-Dawley rat thoracic aorta rings assessed as reduction in KCl-induced contraction; format: functional, tissue-based
[14] = tested on: HeLa; experiment: Antiproliferative activity against human HeLa cells after 72 hrs by MTT assay; format: functional, cell-based
[15] = tested on: Staphylococcus epidermidis; experiment: Antibacterial activity against Staphylococcus epidermidis; format: functional
[16] = tested on: Staphylococcus aureus; experiment: Antibacterial activity against Staphylococcus aureus; format: functional
[17] = tested on: HepG2; experiment: Antiproliferative activity against human HepG2 cells; format: functional, cell-based
[18] = tested on: MDCK; experiment: Antiproliferative activity against MDCK cells; format: cell-based; settings: Canis lupus familiaris
[19] = tested on: HeLa; experiment: Antiproliferative activity against human HeLa cells; format: functional, cell-based
[20] = tested on: HT-29; experiment: Antiproliferative activity against human HT-29 cells; format: functional, cell-based
[21] = tested on: BGC-823; experiment: Antiproliferative activity against human BGC823 cells; format: functional, cell-based
[22] = tested on: ECV-304; experiment: Potency index, ratio of ligustrazine EC50 to compound EC50 for protection against H2O2-induced damage in human ECV304 cells; format: functional
[23] = tested on: A2780; experiment: Antiproliferative activity against human A2780 cells; format: functional, cell-based
[24] = tested on: HCT-8; experiment: Antiproliferative activity against human HCT8 cells; format: functional, cell-based
[25] = tested on: A549; experiment: Antiproliferative activity against human A549 cells; format: functional, cell-based
[26] = tested on: Bel-7402; experiment: Antiproliferative activity against human Bel7402 cells; format: functional, cell-based
[27] = tested on: HUVEC; experiment: Potency index, ratio of ligustrazine EC50 to compound EC50 for protection against H2O2-induced damage in HUVEC; format: functional, Homo sapiens
[28] = tested on: MDCK; experiment: Antiproliferative activity against MDCK cells at 10 uM after 72 hrs by MTT assay relative to control; format: cell-based, Canis lupus familiaris; settings: dog
[29] = tested on: HepG2; experiment: Antiproliferative activity against human HepG2 cells at 10 uM after 72 hrs by MTT assay relative to control; format: functional

Cc1nc(C)c(COCc2ccc(OCc3nc(C)c(C)nc3C)cc2)nc1C
EC50 [1]: 1.66 µM

COc1ccc(C(=O)NCc2cccnc2)cc1C(=O)NCc1cccnc1 [PICOTAMIDE]
IC50 [2]: 49900 µM

Cc1nc(C)c(CCOc2cccc3c2C(=O)c2c(OCCc4nc(C)c(C)nc4C)cc(C(=O)O)cc2C3=O)nc1C
inhibition in vivo at 100 mg/kg [3]: 17.5%

Cc1nc(C)c(C(=O)NC(=N)NCc2ccc(Cl)c(Cl)c2)nc1C
EC50 [4]: 94 µM

O=C(O)c1cc(O)c2c(c1)C(=O)c1cccc(O)c1C2=O [RHEIN]
inhibition in vivo at 100 mg/kg [3]: 65.5%

COc1cc(C(=O)OCc2nc(C)c(C)nc2C)ccc1OCc1nc(C)c(C)nc1C
EC50 [5]: 4.25 µM

CC(=O)OC(C(=O)NCc1nc(C)c(C)nc1C)c1ccccc1 (configuration not stated)
EC50 [6]: 70 µM

CCOC(=O)/C=C/c1cc(OC)c(OC(=O)c2nc(C)c(C)nc2C)c(OC)c1
half-life [7]: 3.03 h

Cc1nc(C)c(C)nc1C [LIGUSTRAZINE]
IC50 [8]: > 20 µM
IC50 [9]: > 20 µM
IC50 [10]: > 20 µM
IC50 [11]: > 20 µM
EC50 [1]: 64.5 µM
EC50 [5]: 60 to 64.5 µM
EC50 [4]: 549 µM
EC50 [12]: 788 µM
EC50 [13]: 2330 µM
IC50 [14]: > 20 µM
EC50 [6]: 600 µM

Cc1nc(C)c(COc2ccc(N3CC(CNC(=O)CCl)OC3=O)cc2F)nc1C (configuration not stated)
MIC [15]: 4 mg/L (≈ 9.16 µM)
MIC [16]: 8 mg/L (≈ 18.3 µM)

CNC(=N)NC(=O)c1nc(C)c(C)nc1C
EC50 [4]: 97 µM

Cc1nc(C)c(COC(=O)[C@]23CCC(C)(C)C[C@H]2C2=CC[C@@H]4[C@@]5(C)CC[C@H](OC(=O)[C@@H](N)CCCCN)C(C)(C)[C@@H]5CC[C@@]4(C)[C@]2(C)CC3)nc1C
IC50 [17]: 2.27 µM
IC50 [18]: 2.31 µM
IC50 [19]: 2.38 µM
IC50 [20]: 2.35 µM
IC50 [21]: 2.48 µM

Cc1nc(C)c(COC(=O)c2cc(O)c3c(c2)C(=O)c2cccc(O)c2C3=O)nc1C
inhibition in vivo at 100 mg/kg [3]: 76.4%

Cc1nc(C)c(COc2ccc(COC(=O)c3cccnc3)cc2)nc1C
EC50 [13]: 379 µM

COc1cc(COCc2nc(C)c(C)nc2C)ccc1OCc1nc(C)c(C)nc1C
EC50 [1]: 1.07 µM

COc1ccc(/C=C/c2nc(C)c(C)nc2C)c(OC)c1OC
EC50 [12]: 5.76 µM

Cc1nc(C)c(C(=O)NC(=N)NCc2cccc(Cl)c2)nc1C
Ratio EC50 [22]: 10
EC50 [4]: 59 µM

CCOC(=O)c1ccc(OCc2ccc(OCc3nc(C)c(C)nc3C)cc2)cc1
EC50 [13]: 751 µM

Cc1nc(C)c(COC(=O)CC[C@@H](C)[C@H]2CC[C@H]3[C@@H]4CC[C@@H]5C[C@H](O)CC[C@]5(C)[C@H]4C[C@H](O)[C@]23C)nc1C
IC50 [23]: 6.62 mg/L (≈ 12.6 µM)
IC50 [24]: 7.43 mg/L (≈ 14.1 µM)
IC50 [25]: 6.69 mg/L (≈ 12.7 µM)
IC50 [26]: 8.01 mg/L (≈ 15.2 µM)
IC50 [21]: 6.66 mg/L

Cc1nc(C)c(COc2ccc(COc3ccc(C=O)cc3)cc2)nc1C
EC50 [13]: 751 µM

Cc1nc(C)c(/C=C/c2ccccc2Cl)nc1C
EC50 [12]: 0.0249 µM
Ratio EC50 [27]: 30000

Cc1nc(C)c(COCCc2ccc(OCc3nc(C)c(C)nc3C)cc2)nc1C
EC50 [1]: 2.03 µM

Cc1nc(C)c(COC(=O)[C@]23CCC(C)(C)C[C@H]2C2=CC[C@@H]4[C@@]5(C)CC[C@H](O)C(C)(C)[C@@H]5CC[C@@]4(C)[C@]2(C)CC3)nc1C
IC50 [17]: 21.4 µM
IC50 [19]: 8.68 µM
IC50 [20]: > 25 µM

COc1ccc(/C=C/C(=O)NCc2nc(C)c(C)nc2C)c(OC)c1OC
EC50 [5]: 25 µM

Cc1nc(C)c(COC(=O)[C@]23CC[C@@H](C(C)C)[C@H]2[C@@H]2CC[C@@H]4[C@@]5(C)CC[C@H](O)C(C)(C)[C@@H]5CC[C@@]4(C)[C@]2(C)CC3)nc1C
IC50 [8]: 5.23 µM
Activity [28]: 26.5%
IC50 [9]: 4.48 µM
IC50 [10]: 4.23 µM
IC50 [11]: 4.19 µM
Activity [29]: 99.87%
IC50 [14]: 4.34 µM

Cc1nc(C)c(CNC(=O)c2ccncc2)nc1C
EC50 [6]: 37 µM

Cc1nc(C)c(COc2ccc(N3CC(CNC(=O)CCl)OC3=O)cc2)nc1C (configuration not stated)
MIC [15]: 8 mg/L (≈ 19.1 µM)
MIC [16]: 8 mg/L (≈ 19.1 µM)

COc1ccc(C(=O)NCc2nc(C)c(C)nc2C)cc1C(=O)NCc1nc(C)c(C)nc1C
IC50 [2]: 2790 µM

Cc1nc(C)c(CNC(=O)C(O)c2ccccc2)nc1C (configuration not stated)
EC50 [6]: 55 µM

COc1cc(C(=O)c2cccc(N(C)C)c2)ccc1OCc1nc(C)c(C)nc1C
EC50 [5]: 17.4 µM

Cc1nc(C)c(C(=O)Oc2ccc(CO[N+](=O)[O-])cc2)nc1C
EC50 [13]: 93 µM

COc1cc(/C=C/C(=O)CC(=O)/C=C/c2ccc(OCc3nc(C)c(C)nc3C)c(OC)c2)ccc1OCc1nc(C)c(C)nc1C
IC50 [23]: 5.54 mg/L (≈ 8.7 µM)
IC50 [24]: 7.11 mg/L (≈ 11.2 µM)
IC50 [25]: 5.89 mg/L (≈ 9.25 µM)
IC50 [26]: 6.39 mg/L (≈ 10 µM)
IC50 [21]: 5.47 mg/L

Cc1nc(C)c(COC(=O)[C@]23CCC(C)(C)C[C@H]2C2=CC[C@@H]4[C@@]5(C)CC[C@H](OC(=O)CN)C(C)(C)[C@@H]5CC[C@@]4(C)[C@]2(C)CC3)nc1C
IC50 [17]: 2 µM
IC50 [18]: 4.88 µM
IC50 [19]: 3.26 µM
IC50 [20]: 2.5 µM
IC50 [21]: 3.06 µM

COc1cc(/C=C/C(=O)CC(=O)/C=C/c2ccc(O)c(OC)c2)ccc1O [CURCUMIN]
IC50 [23]: 6.52 mg/L (≈ 17.7 µM)
IC50 [24]: 6.28 mg/L (≈ 17 µM)
IC50 [25]: 6.52 mg/L (≈ 17.7 µM)
IC50 [26]: 6.5 mg/L (≈ 17.6 µM)
IC50 [21]: 6.81 mg/L

COc1cccc(/C=C/c2nc(C)c(C)nc2C)c1O
EC50 [12]: 28.9 µM
